Data from patent US20220235049A1, “SUBSTITUTED PYRROLO [2, 3-b] PYRIDINE AND PYRAZOLO [3,4-b] PYRIDINE DERIVATIVES AS PROTEIN KINASE INHIBITORS” (Fochon Pharmaceuticals, Ltd., priority 2019, published 2022).

Tested on: DOHH2 cells
Experiment: Cell proliferation assay in DOHH2 cells (MTS)
Format: cell-based
Settings: 120 h
Experimental: To investigate whether a compound is able to inhibit the activity of BTK in cells, a mechanism-based assay using DOHH2 (DSMZ catalog #: ACC47) cell was developed. In this assay, inhibition of BTK was detected by the inhibition of DOHH2 cells proliferation. Cells were collected and plated onto 96-well plates at the optimized cell density (5000 cells/well). Plates were incubated at 37° C., with 5% CO2 for 4 h. Compounds were serially diluted and added to the plates with the final concentrations as 10000, 3333.3, 1111.1, 370.4, 123.5, 41.2, 13.7, 4.6 and 1.5 nM. Plates were incubated at 37° C., with 5% CO2 for 120 h. An aliquot of 20 μL MTS/100 μL medium mixture solution were added to each well and the plates were incubated for exactly 2 h. The reaction was stopped by adding 25 μL 10% SDS to each well. The absorbance was measured by a microplate reader at 490 nm and 650 nm (reference wavelength). IC50 was calculated using GraphPad Prism 5.0.
Select compounds prepared as described above were assayed according to the biological procedures described herein.

Row | Compound | IC50 [nM]
1 | Cc1cc(Oc2ccccc2)ccc1C(=O)c1c[nH]c2ncc(C#N)c(N[C@@]34COC(CO)[C@@H]3C4)c12 (single isomer, unassigned) [Example 19] | 88
2 | Cc1cc(Oc2ccccc2)ccc1C(=O)c1c[nH]c2ncc(C#N)c(N[C@@]34COC(CO)[C@@H]3C4)c12 (single isomer, unassigned) [Example 20] | 20
3 | COc1cnc2[nH]cc(C(=O)c3ccc(Oc4ccccc4F)cc3C)c2c1N[C@@]12CO[C@H](CO)C1C2 (single isomer, unassigned) [Example 167] | 18
4 | COc1cnc2[nH]cc(C(=O)c3ccc(Oc4ccccc4F)cc3F)c2c1N[C@@]12CO[C@H](CO)C1C2 (single isomer, unassigned) [Example 168] | 8
5 | COc1cnc2[nH]cc(C(=O)c3ccc(Oc4ccccc4F)cc3F)c2c1N[C@@]12CO[C@H](CO)C1C2 (single isomer, unassigned) [Example 169] | 65
6 | CCOc1cnc2[nH]cc(C(=O)c3ccc(Oc4ccccc4F)cc3C)c2c1N[C@@]12CO[C@H](CO)C1C2 (single isomer, unassigned) [Example 170] | 12
7 | CCOc1cnc2[nH]cc(C(=O)c3ccc(Oc4ccccc4F)cc3C)c2c1N[C@@]12CO[C@H](CO)C1C2 (single isomer, unassigned) [Example 171] | 2
8 | CCOc1cnc2[nH]cc(C(=O)c3ccc(Oc4ccccc4F)cc3F)c2c1N[C@@]12CO[C@H](CO)C1C2 (single isomer, unassigned) [Example 172] | 1
9 | CCOc1cnc2[nH]cc(C(=O)c3ccc(Oc4ccccc4F)cc3F)c2c1N[C@@]12CO[C@H](CO)C1C2 (single isomer, unassigned) [Example 173] | 7
10 | CCOc1cnc2[nH]cc(C(=O)c3ccc(Oc4ccccc4)cc3F)c2c1N[C@@]12CO[C@H](CO)C1C2 (single isomer, unassigned) [Example 181] | 1
11 | CCOc1cnc2[nH]cc(C(=O)c3ccc(Oc4ccccc4)cc3F)c2c1N[C@@]12CO[C@H](CO)C1C2 (single isomer, unassigned) [Example 182] | 31

Same assay, conditions: Homo sapiens, DOHH-2, 120 h

Row | Compound | IC50 [nM]
12 | N#Cc1cnc2[nH]cc(C(=O)c3ccc(Oc4ccccc4)cc3Cl)c2c1N[C@@]12COC(CO)[C@@H]1C2 (single isomer, unassigned) [Example 17] | 43
13 | COc1cnc2[nH]cc(C(=O)c3ccc(Oc4ccccc4F)cc3C)c2c1N[C@@]12CO[C@H](CO)C1C2 (single isomer, unassigned) [Example 166] | 21
14 | Cc1cc(Oc2ccccc2F)ccc1C(=O)c1c[nH]c2ncc(F)c(N[C@@]34CO[C@H](CO)C3C4)c12 (single isomer, unassigned) [Example 179] | 1
15 | O=C(c1ccc(Oc2ccccc2)cc1Cl)c1c[nH]c2ncc(F)c(N[C@@H]3CC[C@@H](CO)OC3)c12 [Example 6, (2-chloro-4-phenoxyphenyl)(5-fluoro-4-(((3R,6S)-6-(hydroxymethyl)tetrahydro-2H-pyran-3-yl)amino)-1H-pyrrolo[2,3-b]pyridin-3-yl)methanone] | 89
16 | N#Cc1cnc2[nH]cc(C(=O)c3ccc(Oc4ccccc4)cc3Cl)c2c1N[C@@H]1CC[C@@H](CO)OC1 [Example 7, 3-(2-chloro-4-phenoxybenzoyl)-4-(((3R,6S)-6-(hydroxymethyl)tetrahydro-2H-pyran-3-yl)amino)-1H-pyrrolo[2,3-b]pyridine-5-carbonitrile] | 83
17 | O=C(c1ccc(Oc2ccccc2)cc1F)c1c[nH]c2nccc(N[C@@H]3CC[C@@H](CO)OC3)c12 [Example 10, (2-fluoro-4-phenoxyphenyl)(4-(((3R,6S)-6-(hydroxymethyl)tetrahydro-2H-pyran-3-yl)amino)-1H-pyrrolo[2,3-b]pyridin-3-yl)methanone] | 19
18 | Cc1cc(Oc2ccccc2)ccc1C(=O)c1c[nH]c2ncc(C#N)c(N[C@@H]3CC[C@@H](CO)OC3)c12 [Example 11, 4-(((3R,6S)-6-(hydroxymethyl)tetrahydro-2H-pyran-3-yl)amino)-3-(2-methyl-4-phenoxybenzoyl)-1H-pyrrolo[2,3-b]pyridine-5-carbonitrile] | 60
19 | Cc1cc(Oc2ccccc2)ccc1C(=O)c1c[nH]c2nccc(N[C@@H]3CC[C@@H](CO)OC3)c12 [Example 13, (4-(((3R,6S)-6-(hydroxymethyl)tetrahydro-2H-pyran-3-yl)amino)-1H-pyrrolo[2,3-b]pyridin-3-yl)(2-methyl-4-phenoxyphenyl)methanone] | 19
20 | Cc1cc(Oc2ccccc2)ccc1C(=O)c1c[nH]c2ncc(F)c(N[C@@H]3CC[C@@H](CO)OC3)c12 [Example 15, (5-fluoro-4-(((3R,6S)-6-(hydroxymethyl)tetrahydro-2H-pyran-3-yl)amino)-1H-pyrrolo[2,3-b]pyridin-3-yl)(2-methyl-4-phenoxyphenyl)methanone] | 85
21 | O=C(c1ccc(Oc2ccccc2)cc1)c1c[nH]c2nccc(N[C@@H]3CC[C@@H](CO)OC3)c12 [Example 28, (4-(((3R,6S)-6-(hydroxymethyl)tetrahydro-2H-pyran-3-yl)amino)-1H-pyrrolo[2,3-b]pyridin-3-yl)(4-phenoxyphenyl)methanone] | 32
22 | N#Cc1cnc2[nH]cc(C(=O)c3ccc(Oc4ccccc4)cc3)c2c1N[C@@H]1CC[C@@H](CO)OC1 [Example 29, 4-(((3R,6S)-6-(hydroxymethyl)tetrahydro-2H-pyran-3-yl)amino)-3-(4-phenoxybenzoyl)-1H-pyrrolo[2,3-b]pyridine-5-carbonitrile] | 99
23 | O=C(c1ccc(Oc2ccccc2F)cc1Cl)c1c[nH]c2nccc(N[C@@H]3CC[C@@H](CO)OC3)c12 [Example 30, (2-chloro-4-(2-fluorophenoxy)phenyl)(4-(((3R,6S)-6-(hydroxymethyl)tetrahydro-2H-pyran-3-yl)amino)-1H-pyrrolo[2,3-b]pyridin-3-yl)methanone] | 21
24 | N#Cc1cnc2[nH]cc(C(=O)c3ccc(Oc4ccccc4F)cc3Cl)c2c1N[C@@H]1CC[C@@H](CO)OC1 [Example 32, 3-(2-chloro-4-(2-fluorophenoxy)benzoyl)-4-(((3R,6S)-6-(hydroxymethyl)tetrahydro-2H-pyran-3-yl)amino)-1H-pyrrolo[2,3-b]pyridine-5-carbonitrile] | 15
25 | O=C(c1ccc(Oc2ccccc2)c(Cl)c1Cl)c1c[nH]c2nccc(N[C@@H]3CC[C@@H](CO)OC3)c12 [Example 36, (2,3-dichloro-4-phenoxyphenyl)(4-(((3R,6S)-6-(hydroxymethyl)tetrahydro-2H-pyran-3-yl)amino)-1H-pyrrolo[2,3-b]pyridin-3-yl)methanone] | 69
26 | N#Cc1cnc2[nH]cc(C(=O)c3ccc(Oc4ccccc4)c(Cl)c3Cl)c2c1N[C@@H]1CC[C@@H](CO)OC1 [Example 37, 3-(2,3-dichloro-4-phenoxybenzoyl)-4-(((3R,6S)-6-(hydroxymethyl)tetrahydro-2H-pyran-3-yl)amino)-1H-pyrrolo[2,3-b]pyridine-5-carbonitrile] | 48
27 | Cc1nc(Oc2ccccc2)ccc1C(=O)c1c[nH]c2nccc(N[C@@H]3CC[C@@H](CO)OC3)c12 [Example 41, (4-(((3R,6S)-6-(hydroxymethyl)tetrahydro-2H-pyran-3-yl)amino)-1H-pyrrolo[2,3-b]pyridin-3-yl)(2-methyl-6-phenoxypyridin-3-yl)methanone] | 53
28 | O=C(c1c(F)cc(Oc2ccccc2)cc1F)c1c[nH]c2nccc(N[C@@H]3CC[C@@H](CO)OC3)c12 [Example 44, (2,6-difluoro-4-phenoxyphenyl)(4-(((3R,6S)-6-(hydroxymethyl)tetrahydro-2H-pyran-3-yl)amino)-1H-pyrrolo[2,3-b]pyridin-3-yl)methanone] | 7
29 | N#Cc1cnc2[nH]cc(C(=O)c3c(F)cc(Oc4ccccc4)cc3F)c2c1N[C@@H]1CC[C@@H](CO)OC1 [Example 45, 3-(2,6-difluoro-4-phenoxybenzoyl)-4-(((3R,6S)-6-(hydroxymethyl)tetrahydro-2H-pyran-3-yl)amino)-1H-pyrrolo[2,3-b]pyridine-5-carbonitrile] | 57
30 | Cc1cc(Oc2ccccc2F)ccc1C(=O)c1c[nH]c2nccc(N[C@@H]3CC[C@@H](CO)OC3)c12 [Example 46, (4-(2-fluorophenoxy)-2-methylphenyl)(4-(((3R,6S)-6-(hydroxymethyl)tetrahydro-2H-pyran-3-yl)amino)-1H-pyrrolo[2,3-b]pyridin-3-yl)methanone] | 1
31 | Cc1cc(Oc2cccc(F)c2)ccc1C(=O)c1c[nH]c2nccc(N[C@@H]3CC[C@@H](CO)OC3)c12 [Example 47, (4-(3-fluorophenoxy)-2-methylphenyl)(4-(((3R,6S)-6-(hydroxymethyl)tetrahydro-2H-pyran-3-yl)amino)-1H-pyrrolo[2,3-b]pyridin-3-yl)methanone] | 46
32 | Cc1cc(Oc2ccccc2F)ccc1C(=O)c1c[nH]c2ncc(C#N)c(N[C@@H]3CC[C@@H](CO)OC3)c12 [Example 48, 3-(4-(2-fluorophenoxy)-2-methylbenzoyl)-4-(((3R,6S)-6-(hydroxymethyl)tetrahydro-2H-pyran-3-yl)amino)-1H-pyrrolo[2,3-b]pyridine-5-carbonitrile] | 1
33 | Cc1cc(Oc2cccc(F)c2)ccc1C(=O)c1c[nH]c2ncc(C#N)c(N[C@@H]3CC[C@@H](CO)OC3)c12 [Example 49, 3-(4-(3-fluorophenoxy)-2-methylbenzoyl)-4-(((3R,6S)-6-(hydroxymethyl)tetrahydro-2H-pyran-3-yl)amino)-1H-pyrrolo[2,3-b]pyridine-5-carbonitrile] | 100
